# Publication PMC6541264, “Molecular mechanisms involved in drug-induced liver injury caused by urate-lowering Chinese herbs: A network pharmacology study and biology experiments” (PLoS ONE, 2019)
# Experiments:
# Format in all cases: cell-based, human
# [1] = tested on: L-02 cells; experiment: Biochemical indicators of hepatotoxicity (ALT, AST, LDH, ALP activity) of L-02 cells, without and with p38 inhibitor SB203580
# Procedure: (§1) The normal hepatic cell (L02) cell lines were obtained from the National Infrastructure of Cell Line Resources (Chinese Academy of Medical Sciences, Beijing, China), and maintained in Dulbecco’s modified Eagle’s medium (DMEM, 10-013-CVR) supplemented with 10% fetal bovine serum (FBS, Hyclone), 1% penicillin and streptomycin (PS, 100 IU/ml penicillin, 100 μg/ml streptomycin, Mediatech, 30-002-CI). All cells were incubated in a humidified atmosphere at 37°C with 5% CO2.
# To determine how potential liver injury-compounds affected biochemical indicators of L-02 cells, we investigated the activities of AST, ALT, LDH and ALP in cell migration capacity under the different representative compounds conditions (representative compounds group), the inhibitor conditions (inhibitor group), and the negative control. For these experiments, three replicates were made for each concentration of the different representative compounds with liver injury, and each group was established three holes and cultured in 6 times repeatedly. […] Subsequently, the supernatant extraction of L02 cells was collected and centrifuged to detect the activities of AST, ALT, LDH, and ALP by chromatometry method.
# To further and fully elucidating the mechanism of the liver injury caused by the representative compounds from urate-lowering Chinese herbs, we chose the p38α inhibitor, SB203580 to verify our findings. […] The specific composition information was shown in S2 Table. […] The Specific specific composition information is was shown in S4 Table.
# [2] = tested on: p38α; experiment: Western blot, expression of p-p38α/p38α in L-02 cells, without and with inhibitor SB203580
# Source text: After the examination of biochemical indicators for hepatotoxicity in the cell, the expression of crucial liver injury protein in L02 cell lines among different groups was compared by Western blot analysis. Briefly, the proteins from different groups were harvested and lysed using lysis buffer (Sigma-Aldrich) containing a proteinase inhibitor cocktail (Sigma-Aldrich), the equal amounts of protein were separated by electrophoresis on a pre-cast 10% SDS-polyacrylamide gel (Bio-Rad, Hercules, CA) and transferred to polyvinylidene difluoride membranes (Millipore, Bedford, MA). Next, the membrane was blocked in TBST-T containing 5% skim milk for 2 h at room temperature and probed with anti-beta-catenin, and incubated overnight with the indicated primary antibody, followed by incubation with the secondary antibodies at room temperature for another 2 h. Finally, all the immune blots were visualized by enhanced chemiluminescence (Pierce Biotechnology, Inc., Rockford, IL, USA) and western blots were performed at least three times.
# According to the results of network pharmacology, we examined the expression levels of p38α. […] The Specific specific composition information is was shown in S3 Table. […] However, the mechanism of saikosaponin D causing liver injury still remained unclear.
# To further and fully elucidating the mechanism of the liver injury caused by the representative compounds from urate-lowering Chinese herbs, we chose the p38α inhibitor, SB203580 to verify our findings. Seemingly, the ALT, AST, ALP, and LDH activities of each group decreased to varying degrees under the influence of inhibitor. The specific composition information was shown in S2 Table. […] The Specific specific composition information is was shown in S4 Table.
# [3] = MTT assay, cell viability of L-02 cells; details: human, L-02 (L02) normal hepatic cells, L-02, MTT, 24 h, read-out: cells viabilityrate
# Procedure: as §1
# (§2) L-02 cells were trypsinized by 0.25% trypsin after reaching the confluence of 70–80% and plated in 96-well plates at the density of 1.6 × 10^3 […]. And L-02 cells were cultured for 24 hours in vitro before exposure to varying concentrations of different representative compounds with liver injury for further incubating in another 24 hours. Then, 20 μl of 0.25 mg/ml3-(4,5-dimethylthiazol-2-yl)-2,5-diphenyltetrazolium bromide (MTT)-tetrazolium salts (Sigma-Aldrich Corp., St. Louis, MO, USA) in PBS was added to each hole in 96-well plates. After 4 hours of incubation, the formazan crystals were dissolved by 150μl Dimethyl Sulphoxide (DMSO), and shocked to dissolve thoroughly, then the cell viability was measured by MTT method at 570 nm. All experiments were repeated in triplicate independently.
# [4] = tested on: L-02 cells; experiment: MTT assay, cell viability of L-02 cells; details: dose of 60–90 μmol/L
# Procedure: as §1, §2
# [5] = Table 5, L-02 supernatant, 24 h, 40μmol/L
# [6] = Table 5, L-02 supernatant, 24 h, 60μmol/L
# [7] = Table 5, L-02 supernatant, 24 h, 80μmol/L
compound,measurement,setting,value
"C[S+]([O-])c1ccc(-c2nc(-c3ccncc3)c(-c3ccc(F)cc3)[nH]2)cc1 (stereo not shown) [SB203580, reference compound]","effect on component-induced cell damage of L-02 cells, in words",[1]; SB203580 at the dose of 20μmol/L added to components,attenuate the component-induced cell damage
COc1ccc2cc1Oc1ccc(cc1)C[C@H]1c3cc(c(OC)cc3CCN1C)Oc1c(OC)c(OC)cc3c1[C@H](C2)N(C)CC3 [Tetrandrine],p-p38α/p38α,"[2]; S3 Table, L-02, 24 hours of incubation, 40μmol/L",1.03±0.29
same,p-p38α/p38α,"[2]; S3 Table, L-02, 24 hours of incubation, 60μmol/L",0.98±0.14
same,p-p38α/p38α,"[2]; S3 Table, L-02, 24 hours of incubation, 80μmol/L",1.26±0.52
same,p-p38α/p38α,"[2]; S4 Table, L-02, 24 hours, 40μmol/L+inhibitor (SB203580)",0.81±0.03
same,p-p38α/p38α,"[2]; S4 Table, L-02, 24 hours, 40μmol/L, no inhibitor",0.97±0.03
same,p-p38α/p38α,"[2]; S4 Table, L-02, 24 hours, 60μmol/L+inhibitor (SB203580)",0.98±0.17
same,p-p38α/p38α,"[2]; S4 Table, L-02, 24 hours, 60μmol/L, no inhibitor",0.79±0.24
same,p-p38α/p38α,"[2]; S4 Table, L-02, 24 hours, 80μmol/L+inhibitor (SB203580)",1.28±0.26
same,p-p38α/p38α,"[2]; S4 Table, L-02, 24 hours, 80μmol/L, no inhibitor",1.17±0.07
same,"viability at 24 h, 40 μmol/L",[3]; 40 μmol/L,101 ± 9.72%
same,"viability at 24 h, 60 μmol/L",[3]; 60 μmol/L,91.8 ± 4.63%
same,"viability at 24 h, 80 μmol/L",[3]; 80 μmol/L,83.3 ± 5.22%
same,"cell survival rate, in words",[4],lower cell survival rate
same,ALT,"[1]; S2 Table, L-02, 40μmol/L, no inhibitor",16.55± 0.71 U/L
same,AST,"[1]; S2 Table, L-02, 60μmol/L, no inhibitor",5.64± 0.56 U/L
same,ALP,[1]; [5],16.55±0.71 ^*^Δ King's unit /100ml
same,ALT,[1]; [5],4.36±0.35 U/L
same,AST,[1]; [5],713.48±49.44 ^*^Δ U/L
same,LDH,[1]; [5],0.79±0.08 U/L
same,ALT,[1]; [6],5.01±1.20 U/L
same,AST,[1]; [6],705.81±98.97^Δ U/L
same,LDH,[1]; [6],0.82±0.16 U/L
same,ALP,[1]; [7],17.45±0.35 ^**^ΔΔ King's unit /100ml
same,ALT,[1]; [7],4.84±0.86 U/L
same,AST,[1]; [7],736.08±77.41 ^*^Δ U/L
same,LDH,[1]; [7],0.93±0.07 U/L
Evodiamine,"ratios of p-p38α/p38α expression compared with the blank groups, in words","[2]; L-02, 10μmol/L diosgein, 2000μmol/L baicalin, 60μmol/L terandrine, 6μmol/L evodiamine",increased
same,p-p38α/p38α,"[2]; S3 Table, L-02, 24 hours of incubation, 5μmol/L",1.13±0.33
same,p-p38α/p38α,"[2]; S3 Table, L-02, 24 hours of incubation, 6μmol/L",1.39±0.34
same,p-p38α/p38α,"[2]; S3 Table, L-02, 24 hours of incubation, 7μmol/L",1.03±0.48
same,p-p38α/p38α,"[2]; S4 Table, L-02, 24 hours, 5μmol/L+inhibitor (SB203580)",0.82±0.02
same,p-p38α/p38α,"[2]; S4 Table, L-02, 24 hours, 5μmol/L, no inhibitor",1.74±0.42
same,p-p38α/p38α,"[2]; S4 Table, L-02, 24 hours, 10μmol/L+inhibitor (SB203580)",0.47±0.03
same,p-p38α/p38α,"[2]; S4 Table, L-02, 24 hours, 10μmol/L, no inhibitor",1.45±0.29
same,p-p38α/p38α,"[2]; S4 Table, L-02, 24 hours, 15μmol/L+inhibitor (SB203580)",0.91±0.22
same,p-p38α/p38α,"[2]; S4 Table, L-02, 24 hours, 15μmol/L, no inhibitor",1.39±0.77
